# Experimental data reported in the Kinase Knowledgebase extract (Sharma et al. 2016).
# Values joined by “and” are separate entries in the source; they are usually repeats but may differ in a detail not shown here. Equal entries are not always repeated.
# Key:
# [1] = biological target: CDK2 (UniProt P24941); experiment: Enzyme Assay
# [2] = biological target: CDK2 (human) (UniProt P24941); experiment: Cell-Based Assay
# [3] = system: CDK2 (mouse); experiment: Cell-Based Assay; settings: p388
# [4] = system: CDK2 (rat); experiment: Cell-Based Assay; settings: rasmc
# [5] = system: CDK2 (murine); experiment: Animal Model; settings: l1210
SMILES,IC50 [1] [µg/mL],further results
CC(C)n1cnc2c(NCc3ccc(F)cc3)nc(NC[C@@H](C)O)nc21,0.23,
COc1ccc(CNc2nc(NCC(O)CN)nc3c2ncn3C(C)C)cc1 (stereo unspecified),0.6,
COc1ccc(CNc2nc(Cl)nc3c2ncn3Cc2ccccc2)cc1,> 60,
CC(C)[C@H](CO)Nc1nc(NCc2ccc(F)cc2)c2ncn(C(C)C)c2n1,0.06,
FC(F)(F)n1cnc2c(NCc3ccc(Cl)cc3)nc(Cl)nc21,1,
CC(C)[C@@H](CO)Nc1nc(NCc2ccc(F)cc2)c2ncn(C(C)C)c2n1,0.19,
COc1ccc(CNc2nc(Cl)nc3c2ncn3C)cc1,6,
CC(C)n1cnc2c(-c3cccc(OCc4ccccc4)c3)nc(N(CCO)CCO)nc21.CC(C)n1cnc2c(-c3cccc(Oc4ccccc4)c3)nc(N(CCO)CCO)nc21,,IC50 ([2]; mcf-7): 2 µg/mL; IC50 ([2]; ovcar): 2 µg/mL; IC50 ([2]; panc1): 2.5 µg/mL; IC50 [3]: 1.5 µg/mL
CC(C)n1cnc2c(Nc3ccc(-c4ccccc4)cc3)nc(N(CCO)CCO)nc21,0.6,IC50 ([2]; caco-2): 0.5 µg/mL; IC50 ([2]; mcf-7): 4 µg/mL; IC50 ([2]; ovcar): 7 µg/mL; IC50 ([2]; panc1): 4 µg/mL; IC50 [4]: 1 µg/mL
COC(=O)c1ccc(Cn2cnc3c(NCc4ccc(OC)cc4)nc(Cl)nc32)cc1,> 60,
Cn1cnc2c(OCc3ccc(Cl)cc3)nc(Cl)nc21,60,
COc1ccc(CNc2nc(N(CCO)CCO)nc3c2ncn3C(C)C)cc1,,IC50 [4]: 0.5 µg/mL; MST [5]: 13 d (3×) and 11 d and 12 d
COc1ccc(CNc2nc(Cl)nc3c2ncn3CC(C)C)cc1,60,
COc1ccc(CNc2nc(Cl)nc3c2ncn3CCCCl)cc1,> 60,
COc1ccc(CNc2nc(N(CCO)CCO)nc3c2ncn3C)cc1,4,
COc1ccc(CNc2nc(Cl)nc3c2ncn3C(F)(F)F)cc1,> 60,
CSc1cccc(Nc2nc(N(CCO)CCO)nc3c2ncn3C(C)C)c1,0.1,
CC(C)n1cnc2c(NCc3ccc(Cl)cc3)nc(NCC(O)c3ccccc3)nc21 (stereo unspecified),0.08,
COc1ccc(CNc2nc(Cl)nc3c2ncn3C(F)(C(F)(F)F)C(F)(F)F)cc1,> 45,
CC(C)n1cnc2c(Nc3cccc(-c4ccc(C#N)cc4)c3)nc(N(CCO)CCO)nc21,0.5,
CC(N)CNc1nc(NCc2ccc(Cl)cc2)c2ncn(C(C)C)c2n1 (stereo unspecified),0.05,IC50 ([2]; mrc 5): 1 µg/mL
CC(C)n1cnc2c(NCc3ccc(F)cc3)nc(NC[C@H](C)O)nc21,0.22,

SMILES,IC50 [1] [µg/mL],further results
COc1ccc(CNc2nc(Cl)nc3c2ncn3CCC(=O)c2cccc3ccccc23)cc1,> 60,
COc1ccc(CNc2nc(N(CCO)CCO)nc3c2ncn3CCO)cc1,0.5,
COc1ccc(CNc2nc(N(CCO)CCO)nc3c2ncn3C(F)(C(F)(F)F)C(F)(F)F)cc1,40,
CC(C)n1cnc2c(NCc3ccc(Cl)cc3)nc(NCCN)nc21,0.35,IC50 ([2]; mrc 5): 1 µg/mL
COc1ccc(CNc2nc(N3CCOCC3)nc3c2ncn3C(C)C)cc1,,IC50 ([2]; ovcar): 4 µg/mL; IC50 ([2]; panc1): 5.5 µg/mL
CC(C)Cn1cnc2c(NCc3ccc(C(F)(F)F)cc3)nc(N(CCO)CCO)nc21,59,
FC(F)(F)n1cnc2c(OCc3ccc(Cl)cc3)nc(Cl)nc21,> 60,
COc1ccc(CNc2nc(N3CC=CC3)nc3c2ncn3C(C)C)cc1,1,
CC(C)n1cnc2c(NCc3ccc(Cl)cc3)nc(N(CCN)CCO)nc21,0.07,IC50 ([2]; mrc 5): 1 µg/mL
CC(C)n1cnc2c(NCc3ccc(Cl)cc3)nc(N(CCO)CCO)nc21,0.12,IC50 ([2]; mrc 5): 3 µg/mL
COc1ccc(CNc2nc(Cl)nc3c2ncn3C(C)C)cc1,4,
Cn1cnc2c(NCCO)nc(NCCO)nc21,> 60,
Clc1ccc(COc2nc(Cl)nc3[nH]cnc23)cc1,60,
COc1ccc(CNc2nc(Cl)nc3c2ncn3CCCC#N)cc1,> 60,
CC(C)n1cnc2c(NCc3ccc(F)cc3)nc(N(CCO)CCO)nc21,0.15,
COc1ccc(CNc2nc(Cl)nc3[nH]cnc23)cc1,60,
CC(C)n1cnc2c(Nc3ccccc3)nc(Cl)nc21,1,
CSc1ccc(Nc2nc(N(CCO)CCO)nc3c2ncn3C(C)C)cc1,0.07,
CC(C)n1cnc2c(NCc3ccc(-c4ccc(C(F)(F)F)cc4)cc3)nc(N(CCO)CCO)nc21,0.6,
OCCNc1nc(NCc2ccccc2)nc2[nH]cnc12,> 60,
COc1ccc(CNc2nc(NCCO)nc3c2ncn3C)cc1,4,

# More lines, main results first:
IC50 [1] [µg/mL],SMILES,further results
0.8,COc1ccc(CNc2nc(N(CC(C)O)CC(C)O)nc3c2ncn3C(C)C)cc1 (stereo unspecified),
1.07,CC(C)n1cnc2c(NCc3ccc(Cl)cc3)nc(NC[C@@H](N)Cc3ccccc3)nc21,
0.5,COc1cccc(CNc2nc(N(CCO)CCO)nc3c2ncn3C(C)C)c1,
0.56,CC(C)n1cnc2c(NCc3ccc(C(F)(F)F)cc3)nc(N(CCO)CCO)nc21,
31,CC(C)n1cnc2c(NCc3ccc(Cl)cc3)nc(NCCCCCN)nc21,
0.58,CC(C)n1cnc2c(NCc3ccc(F)cc3)nc(NC[C@H]3CCCO3)nc21,
0.8,CC(C)n1cnc2c(NCc3ccc4c(c3)OCO4)nc(N(CCO)CCO)nc21,
0.43,CC(C)n1cnc2c(NCc3ccc(Cl)cc3)nc(NC[C@@H](C)O)nc21,
0.43,CC(C)n1cnc2c(NCc3ccc(Cl)cc3)nc(N(CCO)CCNCCO)nc21,
0.6,CSc1ccc(Nc2nc(Cl)nc3c2ncn3C(C)C)cc1,
0.38,CC(C)n1cnc2c(NCc3ccc(Cl)cc3)nc(NC[C@H](C)O)nc21,
0.35,CC(C)n1cnc2c(NCc3ccc(Cl)cc3)nc(N[C@H](C)CO)nc21,
0.9,COc1cccc(CNc2nc(Cl)nc3c2ncn3C(C)C)c1,
1,COc1ccc(CNc2nc(N(CCO)Cc3ccccc3)nc3c2ncn3C(C)C)cc1,
0.6,CC(C)n1cnc2c(NCc3ccc(-c4ccccc4)cc3)nc(N(CCO)CCO)nc21,IC50 ([2]; caco-2): 3.5 µg/mL; IC50 ([2]; mcf-7): 1 µg/mL; IC50 ([2]; ovcar): 2 µg/mL; IC50 ([2]; panc1): 1.3 µg/mL
11,CC(=O)C(C)n1cnc2c(NCc3ccc(F)cc3)nc(N(CCO)CCO)nc21 (stereo unspecified),
1,CC(C)n1cnc2c(NCc3ccc(Cl)cc3)nc(NCCCN)nc21,
1,COc1ccc(CNc2nc(N3CCCC(O)C3)nc3c2ncn3C(C)C)cc1 (stereo unspecified),

IC50 [1] [µg/mL],SMILES,further results
0.26,CC(C)n1cnc2c(NCc3ccc(Cl)cc3)nc(N[C@@H](C)CO)nc21,
1,COc1ccc(CNc2nc(NC(C)(CO)C(C)C)nc3c2ncn3C(C)C)cc1 (stereo unspecified),
37,CC(=O)C(C)n1cnc2c(NCc3ccc(Cl)cc3)nc(N(CCO)CCO)nc21 (stereo unspecified),
1,COc1ccc(CNc2nc(N(Cc3cccnc3)CC(C)C#N)nc3c2ncn3C(C)C)cc1 (stereo unspecified),
4,COc1ccc(CNc2nc(NCCO)nc3c2ncn3C(C)C)cc1,
0.6,Cc1ccc(-c2ccc(CNc3nc(N(CCO)CCO)nc4c3ncn4C(C)C)cc2)cc1,
0.48,CC(N)CNc1nc(NCc2ccc(F)cc2)c2ncn(C(C)C)c2n1 (stereo unspecified),
0.63,CC(C)n1cnc2c(NCc3ccc(F)cc3)nc(NC[C@@H]3CCCO3)nc21,
0.16,CC(C)n1cnc2c(NCc3ccc(-c4ccccn4)cc3)nc(N(CCO)CCO)nc21,
0.18,CC(CO)Nc1nc(NCc2ccc(F)cc2)c2ncn(C(C)C)c2n1 (stereo unspecified),
2.02,CC(C)n1cnc2c(NCc3ccc(Cl)cc3)nc(NCCNCCO)nc21,
1,CC(C)n1cnc2c(NCC3CCCCC3)nc(Cl)nc21,
9,CC(C)n1cnc2c(NCc3ccc(S(N)(=O)=O)cc3)nc(NCCN)nc21,
0.5,CC(C)n1cnc2c(NCc3ccc(-c4cccs4)cc3)nc(N(CCO)CCO)nc21,
0.19,CC(C)[C@H](CO)Nc1nc(NCc2ccc(Cl)cc2)c2ncn(C(C)C)c2n1,
1.07,CC(C)n1cnc2c(NCc3ccc(Cl)cc3)nc(N[C@@H](Cc3ccccc3)C(N)=O)nc21,
0.6,CC(C)n1cnc2c(NCc3ccc(-c4ccccc4)cc3)nc(NCC(O)CO)nc21 (stereo unspecified),
